Results: patent publication US20120316199A1, “COMPOSITIONS AND METHODS FOR TREATING, CONTROLLING, REDUCING, OR AMELIORATING INFLAMMATORY PAIN” (priority 2011, published 2012)
“And” between values parts separate entries of the source, which are not always exact repeats. Equal entries are not always repeated. “Also recorded” adds a separate entry of the source.

Key:
rabbit eyes = assay: Ophthalmic observations (slit lamp, McDonald Shadduck scores) in New Zealand White rabbits; format: in vivo; set-up: key to Ophthalmic Observation (Slit-Lamp): AN = Appeared normal
Protocol: Prior to placement on study, each animal underwent a pre-treatment ophthalmic examination (slit lamp and indirect ophthalmoscopy). Observations were scored according to the McDonald Shadduck system and recorded using a standardized data collection sheet.
(§1) On Days 1-31, animals received daily topical doses of the appropriate test article into the right eye. Animals were dosed four times per day, with doses administered 2 hours apart. Doses were administered using a calibrated 50-μL pipette. The eyelids were held close for 10 seconds immediately following dosing. The time of each dose administration was recorded.
Ophthalmic examinations (slit lamp) were performed prior to the first dosing on Days 5, 12, 22, 26, and 33. Ocular findings were scored according to the McDonald Shadduck system and recorded using a standardized data collection sheet.

[1] = system: PGE2 in the aqueous humor; assay: Prostaglandin E2 (PGE2) measurement in aqueous humor, rabbit paracentesis model; format: in vivo, Rabbit (New Zealand); details: for PGE2 level in aqueous humor, Mean: second paracentesis, group mean
Protocol: (§2) Each rabbit was placed in a restraint device and tagged with the alphanumeric code. The formulations were instilled (50 μl) into the conjunctival sac of both eyes 180, 120, 90 and 30 min before the first paracentesis; then 15, 30, 90 min after the first paracentesis. To perform the first paracentesis the animals were anaesthetized by intravenous injection of 5 mg/kg Zoletil® (Virbac; 2.5 mg/kg tiletamine HCl and 2.5 mg/kg zolazepam HCl) and one drop of local anesthetic (Novesina®, Novartis) was administered to the eye. Anterior chamber paracentesis was performed with a 26 G needle attached to a tuberculin syringe; the needle was introduced into the anterior chamber through the cornea, taking care not to damage the tissues. Two hours after the first paracentesis, the animals were sacrificed with 0.4 ml Tanax® (Intervet International B.V.) and the second paracentesis was performed. About 100 μl of aqueous humor were removed at the second paracentesis. Aqueous humor was immediately split in four aliquots and stored at −80° C. until analysis. Then both eyes were enucleated and the iris-ciliary body was carefully excised, placed in polypropylene tubes, and stored at −80° C. until analysis.
For the quantitative determination of PGE2 in the aqueous humor we used the PGE2 Immunoassay kit (R&D Systems; Cat. No. KGE004; Lot. No. 240010). Eleven microliters or 16 μl of aqueous humor were diluted to 110 μl or 160 μl with the calibrator diluent solution provided with the kit. One hundred microliters of samples and of standards were load into a 96-well plate and recorded in a plate layout. Samples were treated following the assay procedure described in the kit. A microplate reader (GDV, Italy; model DV 990 B/V6) set at 450 nm (wavelength correction at 540 nm) was used for making the calibration and analyzing the samples.
(§3) Pupillary diameter, PGE2, protein, PMN, and MPO were expressed as mean±SEM. Statistical analysis was performed using one way ANOVA followed by a Newman-Keuls post hoc test. Clinical score was expressed as % of eyes and the statistical analysis was performed using Kruskal-Wallis followed by a Dunn post hoc test. P<0.05 was considered statistically significant in both cases. Prism 4 software (GraphPad Software, Inc.) was used for the analysis and graphs.

[2] = system: MPO activity in iris-ciliary body; assay: Myeloperoxidase (MPO) activity in iris-ciliary body, rabbit paracentesis model; format: in vivo, Rabbit (New Zealand); details: for MPO activity in iris-ciliary body: individual samples collected after the second paracentesis; for MPO activity in iris-ciliary body, Mean: after the second paracentesis, group mean
Protocol: as §2
The activity of MPO was measured as previously described by Williams et al.[5] The iris-ciliary bodies were carefully dried, weighed and immersed in 1 ml of hexa-decyl-trimethyl-ammonium bromide solution. Then, the samples were sonicated for 10 sec on ice by a ultrasound homogenizer (HD 2070, Bandelin electronic), freeze-thawed three times, sonicated for 10 sec and centrifuged at 14,000 g for 10 min to remove cellular debris. An aliquot of the supernatant (40-200 μl) was diluted to 3 ml with the o-dianisidine 2HCl/H2O2 solution. The change in absorbance at 460 nm was continuously monitored for 5 min by a spectrophotometer (UV/Vis Spectrometer Lambda EZ 201; Perkin Elmer). The slope of the line (Δ/min) was determined for each sample and used to calculate the number of units of MPO in the tissue as follows:
Values were expressed as units of MPO/g of tissue.
as §3

[3] = system: intraocular pressure (IOP); assay: Intraocular pressure in New Zealand White rabbits, topical dosing four times daily; format: in vivo
Protocol: as §1
Intraocular pressure (“IOP”) was determined for both eyes of each animal on Days 3, 5, 10, 12, 16, 18, 22, 24, 26, 30, and 32. IOP was evaluated with a Medtronic Solan, Model 30 classic pneumatonometer. Proparacaine hydrochloride 0.5% (1 drop) was delivered to each eye prior to IOP measurement. IOP was measured on Monday. Wednesday, and Friday of each week. A two-point diurnal curve was established: IOP was recorded at 8 a.m. and 12 p.m. on Day 3, and at 8 a.m. and 2 p.m. on later days, with a ±1 hour range for each of these times. The time of the measurements was recorded.
Descriptive statistics were prepared for IOP data of each treatment group (left and right eyes separately) at each measurement interval. The statistics included the number of observations (“N”) mean, standard deviation (“STD”), and standard error (“SEM”). Statistical analyses were conducted on IOP results using Statistical Analysis Systems (SAS Institute. Inc., Cary, N.C. V8.0). Parameters were evaluated using analysis of variance/GLM Procedure followed by Tukey's Standardized Range Test (Tukey, 1985) for post hoc comparisons of group means. The level of significance was set at a probability of p<0.05 for all statistical procedures. Group IOP means were compared at each interval, with left and right eyes compared separately.

[4] = system: protein concentration in the aqueous humor; assay: Protein measurement in aqueous humor, rabbit paracentesis model; format: in vivo, Rabbit (New Zealand); details: for Protein level in aqueous humor, Mean / Protein level in aqueous humor, raw data: second paracentesis; for Protein level in aqueous humor, Mean: group mean; for Protein level in aqueous humor, raw data: per eye
Protocol: as §2
For protein concentration determination in the aqueous humor we used the Protein Quantification Kit (Fluka; Cat. No. 77371; Lot. No. 1303129). Five microliters of aqueous humor were diluted to 100 μl with water. Twenty microliters of samples and of standards were load into a 96-well plate and recorded in a plate layout. Samples were treated following the assay procedure described in the kit. A microplate reader (GDV, Italy; model DV 990 B/V6) set at 670 nm was used for making the calibration and analyzing the samples.
as §3

[5] = system: New Zealand White rabbits; assay: Mortality/morbidity in New Zealand White rabbits, topical dosing four times daily; format: in vivo
Protocol: as §1
Animals determined to be moribund were euthanized with an intravenous injection of commercial euthanasia solution.

pupillary diameter = assay: Pupillary diameter measurement, rabbit paracentesis model; format: in vivo, Rabbit (New Zealand); details: for Pupillary diameter T2: −5 min: 5 min before the first paracentesis; for Pupillary diameter T2: −5 min / Pupillary diameter T3: +115 min / Pupillary diameter T1: −180 min: raw data per eye; for Pupillary diameter T3: +115 min: 5 min before the second paracentesis; for Pupillary diameter T1: −180 min: basal; for Mean (mm) Δ(T3 − T1) of pupillary diameter: group mean, n=8 eyes
[6] = system: iris and conjunctival vessels, anterior chamber; assay: Clinical evaluation by slit lamp (clinical score), rabbit paracentesis model; format: in vivo, Rabbit (New Zealand); set-up: key to Clinical Score −180 min / Clinical Score −5 min / Clinical Score +115 min: 0=normal; 1=discrete dilatation of iris and conjunctival vessels; 2=moderate dilatation of iris and conjunctival vessels; 3=intense iridal hyperemia with flare in the anterior chamber; 4=intense iridal hyperemia with flare in the anterior chamber and presence of fibrinous exudates; details: for Clinical Score −5 min: 5 min before the first paracentesis; for Clinical Score −5 min / Clinical Score +115 min / Clinical Score −180 min: raw data per eye; for Clinical Score +115 min: 5 min before the second paracentesis; for Clinical Score −180 min: basal
[7] = Group A, 0.1%, treated right eye, individual animals
[8] = Group A, 0.1% (0.05 mg/dose) 4 x daily, individual rabbits
[9] = 0.1% formulation, +115 min, N=8 eyes
[10] = 0.1% formulation, −5 min, N=8 eyes

SMILES: C[C@@H]1C[C@H]2[C@@H]3CCC4=CC(=O)C=C[C@]4(C)[C@@]3(F)[C@@H](O)C[C@]2(C)[C@@]1(O)C(=O)CO [Dex, dexamethasone, reference compound]
- Conjunctival congestion Score (rabbit eyes; [7]): 1
- Ophthalmic Observation (Slit-Lamp) (rabbit eyes; [7]): AN
- Ophthalmic observation associated with unilateral topical instillation (rabbit eyes; four times daily up to 31 days, BOL-303242-X 0.05, 0.25, or 0.5 mg/dose, dexamethasone 0.05 mg/dose): sporadic mild conjunctival congestion
- PGE2 level in aqueous humor, Mean ([1]; 0.1% formulation): 2.263 ng/mL
- MPO activity in iris-ciliary body ([2]; 0.1% Dex): 1.32 Unit/g
- MPO activity in iris-ciliary body, Mean ([2]; 0.1% formulation): 0.618 MPO Unit/g
- Mean IOP of the group compared with corresponding eyes of other groups ([3]; 0.1% dexamethasone (Group A), on several days, one or both eyes, p<0.05): significantly higher
- Course of mean IOP after treatment began ([3]; left and right eyes, dexamethasone 0.1% (Group A), BOL-303242-X 10, 5, 1 mg/g (Groups B-D), four times daily): increased sharply
- Protein level in aqueous humor, Mean ([4]; 0.1% formulation): 33.457 mg/mL
- Protein level in aqueous humor, raw data ([4]; 0.1% formulation): 31.31 mg/mL and 31.81 mg/mL and 35.95 mg/mL and 37.15 mg/mL and 32.12 mg/mL and 32.40 mg/mL
- Mortality (rabbits that died or were euthanized between Days 11 and 33) ([5]; 0.05 mg/dose (0.1% dexamethasone suspension or 1 mg/g BOL-303242-X), right eye four times daily, Days 1-31): Six of ten
- Day of Death (day euthanized or found dead) [5, 8]: 25 (2×) and 27 (2×) and 23 and 13
- Recorded Notes on death [5, 8]: Euthanized. Very sick/poor health; left (untreated) eye; also recorded: Euthanized due to severe profuse hemorrhagic diarrhea; also recorded: Found dead. No rigor mortis present
- Mortality rate ([5]; dexamethasone suspension 0.05 mg/dose four times daily up to 31 days): 6 deaths per 10 rabbits
- Pupillary diameter T2: −5 min (pupillary diameter; 0.1% formulation): 5.5 mm and 6.5 mm and 6.0 mm and 7.0 mm and 7.5 mm
- Pupillary diameter T3: +115 min (pupillary diameter; 0.1% formulation): 5.5 mm and 6.0 mm and 4.5 mm and 5.0 mm and 6.5 mm
- Pupillary diameter T1: −180 min (pupillary diameter; 0.1% formulation): 6.0 mm and 7.0 mm and 5.5 mm and 6.5 mm
- Mean (mm) Δ(T3 − T1) of pupillary diameter (pupillary diameter; 0.1% formulation): −0.8 mm
- Clinical Score −5 min ([6]; 0.1% formulation): 0 and 1
- Clinical Score +115 min ([6]; 0.1% formulation): 1 and 3
- Percentage of eyes with clinical score 1 [6, 9]: 75%
- Percentage of eyes with clinical score 3 [6, 9]: 25%
- Clinical Score −180 min ([6]; 0.1% formulation): 0
- Percentage of eyes with clinical score 0 [6, 10]: 75%
- Percentage of eyes with clinical score 1 [6, 10]: 25%
- Percentage of eyes with clinical score 0 ([6]; 0.1% formulation, −180 min (basal), N=8 eyes): 100%

SMILES: CC(C(=O)O)c1ccc(-c2ccccc2)c(F)c1 (stereo not shown) [F, flurbiprofen]
- PGE2 in aqueous humor, statistical significance versus CTR ([1]; 0.03% formulation, p<0.05): statistically significant versus CTR
- PGE2 level in aqueous humor, Mean ([1]; 0.03% formulation): 1.189 ng/mL
- MPO activity in iris-ciliary body ([2]; 0.03% F): 1.27 Unit/g
- MPO activity in iris-ciliary body, Mean ([2]; 0.03% formulation): 0.906 MPO Unit/g
- Protein in aqueous humor, statistical significance vs CTR ([4]; 0.03% formulation, p<0.001): statistical significance
- Protein level in aqueous humor, Mean ([4]; 0.03% formulation): 20.910 mg/mL
- Protein level in aqueous humor, raw data ([4]; 0.03% formulation): 20.78 mg/mL and 28.80 mg/mL and 23.41 mg/mL and 20.21 mg/mL and 17.53 mg/mL and 15.12 mg/mL and 20.52 mg/mL
- Pupillary diameter T2: −5 min (pupillary diameter; 0.03% formulation): 6.0 mm and 6.5 mm and 7.0 mm and 5.5 mm
- Pupillary diameter T3: +115 min (pupillary diameter; 0.03% formulation): 4.0 mm and 3.5 mm and 5.5 mm and 5.0 mm and 4.5 mm and 6.0 mm
- Pupillary diameter T1: −180 min (pupillary diameter; 0.03% formulation): 5.0 mm and 7.0 mm and 6.0 mm and 5.5 mm
- Mean (mm) Δ(T3 − T1) of pupillary diameter (pupillary diameter; 0.03% formulation): −0.9 mm
- Clinical Score −5 min ([6]; 0.03% formulation): 0
- Clinical Score +115 min ([6]; 0.03% formulation): 2
- Percentage of eyes with clinical score 2 ([6]; 0.03% formulation, +115 min, N=8 eyes): 100%
- Clinical Score −180 min ([6]; 0.03% formulation): 0
- Percentage of eyes with clinical score 0 ([6]; 0.03% formulation, −5 min, N=8 eyes): 100%
- Percentage of eyes with clinical score 0 ([6]; 0.03% formulation, −180 min (basal), N=8 eyes): 100%
